This is an account of results in US7687530B2, “Inhibition of chronic tissue transplant rejection” (Genzyme Corporation, priority 2002, dated 2010).

Entries after “also recorded” stand apart in the source; their conditions may differ.

Assay type in all cases: in vivo
The test system of test [1] is hearts from donor B6.C-H2^bm12 mice transplanted into C57/BL6 recipient mice (MHC II mismatch). In words: Chronic rejection of MHC class II mismatched heart transplants, first mouse model (Example 1). The protocol:
The ability of Compound 1 to inhibit chronic transplant rejection in a mouse model was tested. Specifically, hearts from donor B6.C-H2^bm12 mice were transplanted into C57/BL6 recipient mice (MHC II mismatch) using standard protocol described in Hancock, W. W., et al. Proc. Natl. Acad. Sci. USA 93: 13967 (1996) and Yuan et al., Transplantation 73:1736, the entire teachings of which are incorporated herein by reference. Following surgery, the mice were divided into the following treatment groups with seven mice each:
Group I was a control group that was untreated.
Group II was treated with Compound 1 at a dose of 75 mg/kg/day subcutaneously for fourteen days following surgery.
At eight weeks following transplant surgery, the mice were sacrificed and evaluated for chronic rejection accelerated atherosclerosis. Briefly, transplanted hearts were fixed in formalin, embedded in paraffin and sectioned coronally. The sections were scanned for arterial blood vessels, which were subjected to a histopathological score. The histopathological scores (range 0-5 indicating severity of chronic rejection accelerated atherosclerosis, with 0 being normal blood vessel and 5 being fully occluded) are shown in FIG. 1. […] It is likely that increased bioavailability resulting from improved compound formulation will result in more complete protection from chronic rejection vasculopathy.

The subject of test [2] is fully mismatched cardiac allografts (C57/BL 6 donor with Balb/C recipient). As to the kind of experiment: Heterotypic allogeneic heart transplant model with CD154 blockade, second mouse model (Example 2). The protocol: The ability of compound 1 to inhibit chronic transplant rejection was tested in a mouse heterotypic allogeneic heart transplant model in which acute allograft rejection was prevented with CD154 blockade as previously described (Hancock, W. W. et al. 1996. Proc. Natl. Acad. Sci. USA. 93:13967; and Yuan et al., Transplantation 73:1736). Briefly, this model consists of fully mismatched cardiac allografts (C57/BL 6 donor with Balb/C recipient). […] A third group in which acute rejection is blocked by administering a single 250 μg dose of anti-CD154 (anti-CD40 ligand) monoclonal antibody was established, and acute rejection (as evidenced by cessation of contraction of the transplanted heart) occurred in approximately 50% of recipient animals. […] These include profound athlerosclerotic blockages of heart arteries, cellular inflammation (immune cell infiltration into the heart muscle itself), and fibrotic scarring of the cardiac parenchyma. The hearts were subjected to a histopathological score. The histopathological scores (range 0-5 indicating severity of chronic rejection accelerated atherosclerosis, with 0 being normal blood vessel and 5 being fully occluded) are shown in FIG. 2. Thus the addition of anti-CD154 to this model offers certain similarities to the human transplant clinical condition in that acute rejection is managed (in this case with the anti-CD154 monoclonal antibody) so that chronic rejection pathology can be observed.

The test system of test [3] is heart from C57/BL6 mice transplanted into Balb/c recipient mice (total MHC mismatch). As to the kind of experiment: Transplant rejection in total MHC mismatch heart transplant mouse model (Example 3). The settings on record: Compound 1 alone 75 mg/kg/day s.c. for fourteen days; p<0.001; untreated controls rejected after ten days. The protocol:
The ability of Compound 1 to inhibit transplant rejection in a mouse model was tested. Specifically, the heart from C57/BL6 mice was transplanted into Balb/c recipient mice (total MHC mismatch) using standard protocol described in Hancock, W. W., et al. “Costimulatory function and expression of CD40 ligand, CD80 and CD86 in vascularized murine cardiac allograft rejection” Proc. Natl. Acad. Sci. USA 93: 13967 (1996). Following surgery, the mice were divided into the following treatment groups: • Group I is a control group that was untreated. • Group II was treated with Compound 1 at a dose of 75 mg/kg/day subcutaneously for fourteen days following surgery. Control mice receiving no treatment reproducibly experienced rejection of their transplanted hearts after only ten days.

With `N#Cc1cccc(C(C(=O)NCC(c2ccccc2)c2ccccc2)N(CCc2c[nH]cn2)C(=O)c2ccccc2C(=O)c2ccccc2)c1` (centres unmarked) [Compound 1], in test [1] (75 mg/kg/day s.c. for fourteen days, eight weeks after transplant, seven mice per group), the “animals free of vasculopathy” value is listed as 4/7. Moreover, in test [1] (75 mg/kg/day s.c. for fourteen days, eight weeks after transplant, seven mice per group, possibly diminished exposure), the “treated animals showing full involvement (vasculopathy)” value is “three”. Moreover, in test [1] (75 mg/kg/day subcutaneously for fourteen days following surgery, evaluated eight weeks after transplant, averaged for all animals, vs untreated control), the “histological evidence of chronic rejection (histopathological score 0-5, chronic rejection accelerated atherosclerosis)” value was “inhibited; also recorded: significantly (p=0.0002) prevented histological evidence of chronic rejection”. Besides, the “chronic rejection of transplanted hearts” value in test [2] (75 mg/kg/day Compound 1 for two weeks combined with single 250 μg anti-CD154 monoclonal antibody, 120 days post surgery) is “inhibited”. The “indicators of chronic graft rejection (atherosclerotic blockages, cellular inflammation, fibrotic scarring), histological evaluation” value in test [2] (Compound 1 75 mg/kg daily s.c. for 14 days plus single dose anti-CD154, compared with anti-CD154 alone, more than 100 days post surgery) was “dramatic inhibition of all indicators of chronic rejection”. Also, in test [2] (Compound 1 75 mg/kg daily s.c. for 14 days plus single dose anti-CD154, for more than 100 days post surgery), the “transplant recipient animals with lack of acute rejection” value was 100%. Further, in test [2] (Compound 1 alone, untreated recipients rejected within 10 days), the “extension in transplant survival” value was “about 20 days”. In test [3], the “delay in the onset of rejection” value is “two to three”.
